Assay results reported in patent US20050119301A1, “Treatment of restenosis” (priority 2001, published 2005).

Tests used:
LDL = LDL antioxidation test (CuCl2-initiated LDL oxidation, lag time); type: biochemical, human; settings: Table 2, 10 μM; for Lag Time: control 20 min
[1] = 45 mg over 5 to 10 weeks; cited from earlier work
rat thoracic aorta = experiment: Contractile curves to noradrenaline in rat isolated aortic rings (Protocol 1); settings: test compound 1 μg/ml
Method: (§1) Male Sprague-Dawley rats (250±50 g) were gassed with 80% CO2 and 20% O2 until killed. The thoracic aorta was excised and quickly placed in ice-cold Krebs modified solution composed of NaCl […], […] 4.7 mM, MgSO4 7H2O 1.17 mM, NaHCO3 25 mM, KH2PO4 1.18 mM, CaCl2 2.5 mM, glucose 11 mM and EDTA 0.03 mM. It was then trimmed of fat and connective tissue and cut into 2-3 mm wide rings. Each ring was mounted on two parallel stainless steel hooks in a single water-jacketed 3 ml organ bath containing modified Krebs solution maintained at 37° C. and bubbled with 95% O2 plus 5% CO2. The lower hook was attached to a movable support leg and the upper hook to an FTO3 force transducer (Grass Scientific Instruments, Mitutoyo, Japan) for isometric recordings. Changes in force were amplified (Quadbridge amplifier, Scientific Concepts Inc., Victoria, Australia) and recorded on a MacLab 8E data acquisition system (Adinstruments Pty Ltd., NSW, Australia) linked to an Apple computer (Apple Computer Inc, Cupertina, Calif.). Rings were set at an initial tension of 2 g and allowed to equilibrate for 30 minutes after which time they were re-set to 2 g tension before the commencement of each experimental protocol.
Full concentration-contractile curves were obtained to noradrenaline (0.1 nM-[…]) in the absence and presence of β-estradiol (1 μg/ml); Cpd. 5 (0.1 and 1 μg/ml); Cpd. 7 (0.1 and 1 μg/ml); Cpd. 8 (0.1 and 1 μg/ml) and Cpd. 12 (1 μg/ml) and the vehicle equi-volume DMSO. Only one compound at any one concentration was tested on any one ring from any one animal.
(§2) Contractile responses are expressed in g tension (mean+standard error of the mean). Dilatory responses are expressed as a percentage of the contractile force generated by the pre-constricting agent used. Individual concentration-response curves for noradrenaline and acetylcholine±the interventions used were fitted to a logistic equation of the form […] where E is the response, M is the maximum response and K is the concentration eliciting 50% of the maximum response (ie neg log EC50).

[2] = system: rat isolated aortic rings; experiment: Vasodilatory capacity in noradrenaline pre-constricted aortic rings and mechanism of action (Protocol 2a/2b)
Method: as §1
A full concentration response to noradrenaline was obtained. From this the concentration producing a submaximal contraction of approximately 80% was selected (0.03-0.3 μM). The ring was then constricted with this submaximal concentration and allowed to plateau before full concentration-relaxation curves were obtained to β-estradiol and Cpds. 5, 7, 8 and 12 and the vehicle DMSO (at equi-volume). Only one compound was studied with any one ring from any one animal.
Full relaxation curves were obtained to Cpds. 5, 7, 8 and 12 and β-estradiol in the absence and presence of the endothelium (rings were denuded of endothelium by gentle rotation of the lumen against a rough surface), the nitric oxide synthase inhibitor nitro-L-arginine (NOLA 10 μM; with the exception of Cpd. 8, due to limited supply of the compound), KCl 40 mM (to inhibit endothelium derived hyperpolarising factor), the cyclo-oxygenase inhibitor indomethacin (10 μM) and the soluble guanylate cyclase inhibitor 1H-[1,2,4]oxadiazolo[4,3-a]quinoxalin-1-one (ODQ; 10 μM). Only one compound with only one intervention was tested on any one ring from any one animal.
as §2

[3] = system: rat isolated aortic rings; experiment: Protection against endothelium damage induced by oxidised LDL, acetylcholine dilatation (Protocol 3); settings: ox-LDL 0.3 mg protein/ml; β-estradiol 10 pg/ml, Cpd. 5 300 ng/ml, Cpd. 7 1 μg/ml, Cpd. 8 and 12 3 μg/ml
Method: as §1
Full concentration response curves to phenylephrine were constructed from which the concentration giving a submaximal contraction of approximately 80% was selected (usually 0.3 μM). Tissues were then constricted with phenylephrine at the selected concentration and allowed to plateau. Full concentration dilatory curves were then constructed to acetylcholine. […]
Human plasma was obtained from the blood bank. […] The protein content of the final LDL fraction obtained was determined by the simplified protein assay method of Lowry. […]
Contractile responses are expressed in g tension (mean+standard error of the mean). Dilatory responses are expressed as a percentage of the contractile force generated by the pre-constricting agent used. […]

[4] = system: IMA-derived human VSMC primed with PDGF BB; experiment: PDGF BB-induced VSMC DNA synthesis, proliferation and cell number; type: cell-based; settings: Homo sapiens, VSMC, 3 h, read-out: inhibition of PDGF BB-induced DNA synthesis ([3H]-thymidine incorporation)
Method: Cell proliferation was induced by a variety of growth factors such as serum and platelet derived growth factor (PDGF).
Media was changed to LG serum-free DMEM and cells were treated with [^3H]-thymidine at 1 μCi/well for 3 hours. Cells were washed twice with ice cold Dulbecco's PBS. Next, ice cold 0.2M HClO4 (1 ml/well) was added and cells were incubated on ice for 30 min. Cells were then washed three times with 0.5 ml/well of ice cold 0.2M HClO4. Media (0.5 ml/well of 0.2 M NaOH) was replaced and cells were incubate at 37° C. After 1 hour, cells were treated with acetic acid (6%, 0.2 ml/well), transferred to scintillation vials with 3 ml scintillation liquid (Instagel) and counted for 2 min per vial.
The effect of Cpd. 5 and Cpd. 7 was tested further in IMA-derived human VSMC primed with PDGF BB instead of serum. […] (FIG. 12). This effect was equivalent to that observed with estradiol. Cpd.
In further experiments Cpd. […] 7 at 100 nmol/L), indicating ER-mediation. […] 7 (1-100 nmol/L).

[5] = Distribution of isoflavones in lipoprotein subfractions of whole plasma; type: in vitro ADME
Method: Cpd. 1 ([…]), was incubated with whole plasma for 0 h, 4 h and 8 h. The different subfractions LDL/VLDL, HDL and protein (lipoprotein free) were then analysed for their Cpd. 1 concentration. Cpd. 1 was used because it had the most similar polarity to the isoflavone synthetic derivatives.

## O=c1c(-c2ccc(O)cc2)coc2cc(O)cc(O)c12 [Cpd. 3, genistein]
LDL
  % Increase in Time: 0%
  Lag Time: 20 min
[1]
  effect on blood lipid concentrations: no significant effect on blood lipid concentrations

## COc1ccc(-c2coc3cc(O)cc(O)c3c2=O)cc1 [Biochanin]
LDL
  % Increase in Time: 0%
  Lag Time: 20 min

## C[C@]12CC[C@@H]3c4ccc(O)cc4CC[C@H]3[C@@H]1CC[C@@H]2O [β-estradiol, 1,3,5[10]-estratriene-3,17β-diol, reference compound]
Rat thoracic aorta; mean ± SEM
  y max, Noradrenaline + Test compound (B): 0.22 ± 0.12 g tension
Rat thoracic aorta; noradrenaline alone minus noradrenaline + compound
  y max Difference (A − B): 2.1 ± 0.31 g tension
[2]; KCl 40 mM
  vasodilatory response: effect of high KCl levels: inhibited
[2]; NOLA 10 μM
  vasodilatory response: effect of nitro-L-arginine (NOLA): inhibited
[2]; ODQ 10 μM
  vasodilatory response: effect of ODQ: inhibited
[2]; denuded vs intact endothelium
  vasodilatory response: effect of removal of the endothelium: inhibited
[2]; indomethacin 10 μM
  vasodilatory response: effect of indomethacin: did not influence
[3]
  protective effect against ox-LDL inhibition of acetylcholine dilatation (in words): diminished the effect of ox-LDL
[4]
  inhibition at 0.001 µM: 27%
  inhibition at 0.01 µM: 27%
  inhibition at 0.1 µM: 33%

## O=c1c(-c2ccc(O)cc2)coc2cc(O)ccc12 [Cpd. 1, daidzein]
[5]
  amount associated with the lipoproteins, dependence on time and concentration: increased with time, but not with concentration
LDL
  % Increase in Time: 0%
  Lag Time: 19 min

## COc1cc2c(=O)c(-c3ccc(O)cc3)coc2cc1O [Glycitein]
LDL
  % Increase in Time: 0%
  Lag Time: 20 min
